SMILES strings stand for the structures.

In assay [1] the target is T1, CRTh2 receptor (Homo sapiens, UniProt Q9Y5Y4).
T1 sequence (Q9Y5Y4 1-395): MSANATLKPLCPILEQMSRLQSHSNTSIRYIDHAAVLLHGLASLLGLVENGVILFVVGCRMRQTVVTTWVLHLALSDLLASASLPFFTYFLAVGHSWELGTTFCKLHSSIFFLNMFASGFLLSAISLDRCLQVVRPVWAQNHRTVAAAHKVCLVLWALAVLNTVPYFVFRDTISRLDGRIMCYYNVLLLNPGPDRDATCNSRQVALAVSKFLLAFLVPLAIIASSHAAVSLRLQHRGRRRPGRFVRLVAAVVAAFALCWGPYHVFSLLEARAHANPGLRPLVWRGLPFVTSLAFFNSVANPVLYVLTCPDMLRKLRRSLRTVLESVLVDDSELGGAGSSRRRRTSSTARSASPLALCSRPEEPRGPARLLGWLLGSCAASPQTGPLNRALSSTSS
In words: CRTh2 cAMP functional assay. The class given is cell-based. The arrangement: expressed in transfected cells; host or cells: CHO cells. The following applies: CHO cells stably transfected with CRTh2; 10 nM PGD2 and 5 μM forskolin; cAMP Alphascreen. The protocol: CRTh2 cAMP Assay Protocol
Test compounds are prepared in assay stimulation buffer/DMSO and 5 μL/well is added to an assay plate (384-well white opti-plate).
CHO cells stably transfected with the CRTh2 receptor are prepared (dissociated from a cell culture flask and washed in PBS) to a concentration of 4×10^6/mL in assay stimulation buffer and added to the assay plate (10 μL/well).
The assay plate is incubated at room temperature on a shaker for 15 minutes.
A mix of agonist (10 nM PGD2) and 5 μM forskolin is prepared in assay stimulation buffer and added to the assay plate (5 μL/well).
In addition, a cAMP standard is serially diluted in assay stimulation buffer and added to separate empty wells on the assay plate (20 μL/well).
The assay plate is incubated at room temperature on a shaker for 60 minutes.
A cell lysis mix (lysis buffer containing Alphascreen™ donor beads and biotinylated cAMP) is prepared under darkened conditions 60 minutes prior to addition. Alphascreen™ acceptor beads are added to the lysis mix after 60 minutes. […]
The assay plate is sealed with Topseal-S™ and incubated in the dark at room temperature on a shaker for 45 minutes. The plate is then counted using a Packard Fusion™ instrument.
The resulting counts per minute are converted to nM cAMP by using the prepared cAMP standard curve. IC50 values are then determined using Prism™ software.
(In general: Alpha assays give light when donor and acceptor beads are brought close together.)

The target in assay [2] is T1, CRTh2 receptor. Put plainly: Scintillation Proximity Assay (SPA) binding assay, 3H PGD2. The arrangement: expressed in transfected cells; host or cells: K562 or CHO cells, membranes. As to conditions: membranes from K562 or CHO cells stably transfected with human CRTh2; 3H prostaglandin D2. The protocol:
Scintillation Proximity Assay (SPA) protocol
Membranes are prepared from K562 or Chinese Hamster Ovary (CHO) cells stably transfected with human CRTh2 receptors.
The assay is performed in a 96-well U-bottomed polypropylene plate in a final volume of 100 μL and the components of the assay are added as follows: test compound in DMSO/assay buffer (25 μL), ^3H prostaglandin D2 (PGD2) (25 μL) and CRTh2 membrane fragments (50 μL). The assay is incubated at ambient temperature with shaking for 60 minutes, then harvested on to filter plates. The plate is dried for 2 hours, prior to addition of Micro-Scint 20M (50 μL) and sealing with TopSeal-S™. Plates are then counted using a Packard Top Count instrument, each well being counted for 20 minutes. Ki values are determined using Sigma Plot™ software.
A general note: In a scintillation proximity assay essentially only radioactivity close to the scintillant gives light.

A word on the IC50: it is the concentration at which inhibition is half-maximal. Low readings indicate higher potency, high ones lower potency. In assay [1], `CCOC(=O)COc1ccc(Cl)cc1Cc1cc(Cl)ccc1OCC(=O)O` [Example 2, [4-chloro-2-(5-chloro-2-ethoxycarbonylmethoxy-benzyl)-phenoxy]-acetic acid] came in with an IC50 of 68 nM.
In general, Ki refers to a measure of affinity in units of concentration, obtained from inhibition or displacement. A low value points to tighter binding. `CC(C)(Oc1ccc(Cl)cc1Cc1cc(Cl)ccc1OCC(=O)O)C(=O)O` [Example 13, 2-[2-(2-carboxymethoxy-5-chloro-benzyl)-4-chloro-phenoxy]-2-methyl-propionic acid] registered a Ki in assay [2] of 58 nM. The IC50 in assay [1] stood at 52 nM.

The values are drawn from patent US20080312322A1, “Organic Compounds” (priority 2005, published 2008).
